# Data: patent publication US20240376093A1, “SULFOXIMINE COMPOUND AND USE THEREOF” (MEDSHINE DISCOVERY INC., priority 2021, published 2024)
# Where a name gives a salt, the structure may show the parent alone. Read-outs that look alike come from different tables or passages of the source.
# What was measured:
# [1] = biological target: TYK2 protein (His-TVMV-TYK2 JH2 (575-869)) (Homo sapiens (Human), UniProt P29597); test: Tyk2 JH2 enzymatic activity assay (HTRF, fluorescein-labeled kinase tracer); type: binding; conditions: 90 minutes at room temperature
# Chain of TYK2 protein (His-TVMV-TYK2 JH2 (575-869)) (P29597 575-869, species assumed): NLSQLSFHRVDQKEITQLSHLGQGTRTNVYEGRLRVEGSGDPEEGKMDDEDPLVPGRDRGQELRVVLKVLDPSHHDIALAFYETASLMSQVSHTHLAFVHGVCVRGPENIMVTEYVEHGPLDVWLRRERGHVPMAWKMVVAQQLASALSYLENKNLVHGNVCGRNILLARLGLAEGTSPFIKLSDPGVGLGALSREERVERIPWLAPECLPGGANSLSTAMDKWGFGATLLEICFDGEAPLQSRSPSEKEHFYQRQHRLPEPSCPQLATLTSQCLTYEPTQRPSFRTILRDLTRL
# Protocol: The assay system was incubated at room temperature for 90 minutes. The resulting HTRF (homogeneous time-resolved fluorescence) signal, i.e., the ratio of the fluorescence intensity of the fluorescein acceptor (520 nm) and the terbium donor (495 nm) at the emission wavelength, was then measured on an Envision plate reader, and based on this, the IC50 value was calculated.
# [2] = system: IFNα-stimulated phosphorylated STAT1; test: Assay of IFNα-stimulated phosphorylated STAT1 in hPBMC (flow cytometry, CD4+ T cells); type: cell-based, Human; conditions: IFN-α 1000 U/ml, pSTAT1 in CD4+ T cells
# Protocol: Human peripheral blood mononuclear cells (hPBMC) were plated at a cell density of 1×10^5 cells/well and placed in a 37° C. incubator for 90 minutes. Different concentrations of compounds were then added to the cells, wherein the concentration of each compound started from […] and was serially diluted 5-fold to a total of 8 concentrations. Compounds and cells were incubated at 37° C. for 30 minutes. IFN-α (1000 U/ml) was used to stimulate hPBMC, and then flow cytometry was used to detect the level of phosphorylated STAT1 in CD4+ T cells to evaluate the inhibitory activity of compounds on the IFN-α pathway.
# [3] = Pharmacokinetics of the compound in Balb/c mice; type: in vivo; conditions: mouse, plasma, male Balb/c mice, fasted; for AUC: read-out: AUC (exposure)
# Protocol: • Purpose of assay: To assay the pharmacokinetics of the compound in Balb/c mice • Assay materials: Male Balb/c mice, fasted
# The pharmacokinetic profiles of compound 1 in rodents after intravenous injection and oral administration were assayed using standard protocols.
# Acclimatization/quarantine of Balb/c mice was performed for at least 3 days after arrival at the facility. Upon completion of the acclimatization/quarantine, a veterinarian or designee examined the health status of the Balb/c mice to evaluate whether the animals were suitable for the assay study. All Balb/c mice were fasted overnight before administration and resumed feeding 4 hours after administration. In the assay, the candidate compound was formulated into a homogeneous solution and given to Balb/c mice via a single intravenous injection and oral administration. The intravenous vehicle was a clear solution of 80% polyethylene glycol 400/20% water and the oral vehicle was a homogeneous suspension of ethanol/vitamin E polyethylene glycol succinate/polyethylene glycol 300 (5/5/90). The animals were weighed before administration and the administered volume was calculated based on body weight. Whole blood samples were collected by means of jugular vein puncture within 24 hours. All blood samples were immediately transferred to labeled commercial centrifuge tubes containing K2-EDTA. After blood samples were collected, the blood samples were centrifuged at 3200 g for 10 minutes at 4° C. The supernatant plasma was aspirated, quickly placed on dry ice, and then stored at −60° C. or lower for LC-MS/MS analysis. The data of blood drug concentration-time were analyzed using the WinNonlin software package (Version 6.3 and above) using a non-compartmental model. Pharmacokinetic parameters were calculated, including (if data permitted), but not limited to, peak concentration (Cmax), time to peak (Tmax), elimination half-life (T 1/2), area under plasma concentration-time curve (AUC), mean retention time (MRT), bioavailability, etc.
IC50 [1] [nM],Structure (SMILES),further results
0.07,[2H]C([2H])([2H])CC(=O)c1cnc(NC(=O)C2CC2)cc1Nc1cccc(-c2cnc(N=S(C)(C)=O)cn2)c1OC [Compound 9],IC50 [2]: 0.5 nM
0.29,COCC(=O)c1cnc(NC(=O)C2CC2)cc1Nc1cccc(-c2cnc(N=S(C)(C)=O)cn2)c1OC [Compound 17],–
0.13,[2H]C([2H])([2H])CC(=O)c1cnc(NC(=O)C2CC2)cc1Nc1cc(C)cc(-c2cnc(N=S(C)(C)=O)cn2)c1OC [Compound 21],–
0.13,[2H]C([2H])([2H])CC(=O)c1cnc(NC(=O)NC2CC2)cc1Nc1cccc(-c2cnc(N=S(C)(C)=O)cn2)c1OC [Compound 23],–
0.08,[2H]C([2H])([2H])CC(=O)c1cnc(NC(=O)C2CC2)cc1Nc1nccc(-c2cnc(N=S(C)(C)=O)cn2)c1OC [Compound 16],–
0.3,[2H]C([2H])([2H])CC(=O)c1cnc(NC(=O)C2CC3CCC2C3)cc1Nc1cccc(-c2cnc(N=S(C)(C)=O)cn2)c1OC (centres unmarked) [Compound 33],–
0.09,COc1c(Nc2cc(NC(=O)C3CC3)ncc2C(C)=O)cccc1-c1cnc(N=S(C)(C)=O)cn1 [Compound 18],–
0.09,[2H]C([2H])([2H])CC(=O)c1cnc(NC(=O)C2CC2)cc1Nc1cccc(-c2cnc(N=S(=O)(CC)CC)cn2)c1OC [Compound 27],–
0.25,[2H]C([2H])([2H])CC(=O)c1cnc(NC(=O)C2CCC2)cc1Nc1cccc(-c2cnc(N=S(C)(C)=O)cn2)c1OC [Compound 14],–
0.31,[2H]C([2H])([2H])CC(=O)c1cnc(NC(=O)C2CC3(CCC3)C2)cc1Nc1cccc(-c2cnc(N=S(C)(C)=O)cn2)c1OC [Compound 32],–
0.03,[2H]C([2H])([2H])NC(=O)c1cnc(NC(=O)C2CC2)cc1Nc1cccc(-c2cnc(N=S(C)(C)=O)cn2)c1OC [Compound 3],"IC50 ([2]; Homo sapiens, CD4+ T): 2.1 nM"
0.08,[2H]C([2H])([2H])CC(=O)c1cnc(NC(=O)C2CC2)cc1Nc1cc(F)cc(-c2cnc(N=S(C)(C)=O)cn2)c1OC [Compound 15],–
0.07,CCC(=O)c1cnc(NC(=O)C2CC2)cc1Nc1cccc(-c2cnc(N=S(C)(C)=O)cn2)c1OC [Compound 4],"IC50 ([2]; Homo sapiens, CD4+ T): 0.6 nM"

# The next lines start with the molecule.
Structure (SMILES),IC50 [1] [nM],further results
[2H]C([2H])([2H])CC(=O)c1cnc(Nc2cccc(C#N)n2)cc1Nc1cccc(-c2cnc(N=S(C)(C)=O)cn2)c1OC [Compound 12],0.05,–
[2H]C([2H])([2H])CC(=O)c1cnc(NC(=O)c2cn[nH]c2)cc1Nc1cccc(-c2cnc(N=S(C)(C)=O)cn2)c1OC [Compound 28],0.17,–
[2H]C([2H])([2H])NC(=O)c1nnc(NC(=O)C2CC2)cc1Nc1cccc(-c2cnc(N=S(C)(C)=O)cn2)c1OC [Compound 2],0.06,"IC50 ([2]; Homo sapiens, CD4+ T): 0.2 nM"
[2H]C([2H])([2H])CC(=O)c1cnc(NC(=O)C2CC2)cc1Nc1cccc(-c2cnc(N=S3(=O)CCN(C)CC3)cn2)c1OC [Compound 8],0.15,"IC50 ([2]; Homo sapiens, CD4+ T): 0.4 nM"
COc1c(Nc2cc(NC(=O)C3CC3)ncc2C(=O)C2CC2)cccc1-c1cnc(N=S(C)(C)=O)cn1 [Compound 19],0.12,–
[2H]C([2H])([2H])CC(=O)c1cnc(NC(=O)C2CC2)cc1Nc1cccc(-c2cnc(N=S3(=O)CCC3)cn2)c1OC [Compound 6],0.18,–
[2H]C([2H])([2H])CC(=O)c1cnc(NC(=O)C23CC(C2)C3)cc1Nc1cccc(-c2cnc(N=S(C)(C)=O)cn2)c1OC [Compound 30],0.56,–
[2H]C([2H])([2H])CC(=O)c1cnc(Nc2ccn(C)c(=O)c2)cc1Nc1cccc(-c2cnc(N=S(C)(C)=O)cn2)c1OC [Compound 35],0.76,–
[2H]C([2H])([2H])CC(=O)c1cnc(Nc2cncc(C)n2)cc1Nc1cccc(-c2cnc(N=S(C)(C)=O)cn2)c1OC [Compound 13],0.12,–
[2H]C([2H])([2H])CC(=O)c1cnc(Nc2ccccn2)cc1Nc1cccc(-c2cnc(N=S(C)(C)=O)cn2)c1OC [Compound 10],0.06,–
[2H]C([2H])([2H])CC(=O)c1cnc(NC(=O)C2CC2)cc1Nc1cc(OC)cc(-c2cnc(N=S(C)(C)=O)cn2)c1OC [Compound 22 hydrochloride],0.14,–
[2H]C([2H])([2H])CC(=O)c1cnc(Nc2cc3cc[nH]c3cn2)cc1Nc1cccc(-c2cnc(N=S(C)(C)=O)cn2)c1OC [Compound 29],0.11,–
[2H]C([2H])([2H])CC(=O)c1cnc(Nc2ccc(F)cn2)cc1Nc1cccc(-c2cnc(N=S(C)(C)=O)cn2)c1OC [Compound 11],0.11,–
[2H]C([2H])([2H])CC(=O)c1cnc(NC(=O)C2CC2)cc1Nc1cccc(-c2cnc(N=S3(=O)CCOCC3)cn2)c1OC [Compound 5],0.07,–
[2H]C([2H])([2H])CC(=O)c1cnc(NC(=O)C2C3COCC32)cc1Nc1cccc(-c2cnc(N=S(C)(C)=O)cn2)c1OC (centres unmarked) [Compound 31],0.34,–
[2H]C([2H])([2H])CC(=O)c1cnc(NC(=O)C2CC2)cc1Nc1cccc(-c2cnc(N=S3(=O)CCCC3)cn2)c1OC [Compound 7],0.09,–
[2H]C([2H])([2H])CC(=O)c1cnc(NC(=O)C2CC2)cc1Nc1cccc(-c2cnc(N=S(C)(C)=O)cn2)c1OC [Compound 1],–,"AUC ([3]; IV (1 mg/kg)): 9.38 µM·h; clearance ([3]; IV (1 mg/kg), read-out: Cl (clearance rate)): 3.39 mL/min/kg; half-life ([3]; IV (1 mg/kg), read-out: T1/2 (half-life) (converted)): 1.61 h; Vd ([3]; IV (1 mg/kg), read-out: Vd (volume of distribution)): 0.45 L/kg; AUC ([3]; PO (10 mg/kg)): 47.2 µM·h; Cmax ([3]; PO (10 mg/kg), read-out: Cmax (maximum concentration)): 13.4 µM; bioavailability ([3]; PO (10 mg/kg), read-out: F (bioavailability)): 51.4%; Tmax ([3]; PO (10 mg/kg), read-out: Tmax (time to peak concentration)): 0.75 h; IC50 [2]: 1.1 nM"
[2H]C([2H])([2H])CC(=O)c1cnc(NC(=O)N2CCC2)cc1Nc1cccc(-c2cnc(N=S(C)(C)=O)cn2)c1OC [Compound 20],0.19,–
